17 molecules from patent publication US11713318B2, “Short conjugated oligoelectrolytes and uses thereof” (The Regents Of The University Of California, priority 2018, dated 2023) can be followed below.

Like-named read-outs stand apart in the source and are kept apart here.

The test system of series [1] is Hep G2 (ATCC HB-8065) cells. The series can be described thus: Cytotoxicity, MTT assay. The class given is cell-based. The following applies: Homo sapiens, HepG2, 24 h. The method, then:
(§1) Before removing the frozen cell stocks from liquid nitrogen, culture medium was pre-warmed to 37° C. The frozen tube was then removed from liquid nitrogen and placed into a 37° C. water bath and shaken gently to thaw the cell stock as quickly as possible. A small portion of the pre-warmed culture medium was added to the cell solution. The cell suspension was then centrifuged at 1000 r/min for 3 minutes. The supernatant was discarded and the cells were resuspended in fresh culture medium.
(§2) NIH 3T3 (ATCC CRL-1658) and Hep G2 (ATCC HB-8065) cells were cultured with DMEM+10% FBS in 100 mm dishes. Cells were lifted for subculture or testing when confluence reached ˜60% by treating with 1× trypsin (incubated for 3 min at 37° C.). J774 (ATCC TIB-67) cells were cultured with DMEM+10% FBS in 100 mm dishes. Cells were lifted for subculture or testing when confluence reached ˜80% using a cell scraper. RAW264.7 (ATCC TIB-71) cells were cultured with DMEM+10% heat-inactivated FBS+1% pen/strep in T75 flasks. Cells were lifted for subculture or testing when confluence reached ˜80% using a cell scraper.
(§3) • 1. Cells were lifted and resuspended in culture medium. The number of cells in the cell suspension was determined using an auto-cell counter: 10 μL of the cell suspension was mixed with 10 μL 1× trypan blue (filtered with 0.2 μm PES filter) and the mixture was loaded onto a cell counting slide. Based on the concentration of viable cells, the cell suspension was further diluted to achieve the desired density. • 2. Cells were seeded in 96 well plates by adding 100 μL final cell suspension column-by-column using a multichannel pipette (5000 cells/well for NIH 3T3, 10000 cells/well for Hep G2, J774 and RAW264.7). The outer wells were block with PBS to reduce the effects of evaporation. One column was filled with only culture medium as a blank. Cells were incubated overnight before adding the test articles. • 3. Test articles were dissolved in 1×PBS (or DMSO) to obtain stocks solution. Stock solutions were pre-warmed before use. […] Serial dilutions (2-fold) of the 10× solutions were made in sterile culture tubes by diluting in 1×PBS (8 dilutions to yield 9 test concentrations). 900 μL of culture media was added to each tube to obtain final drug solution containing 10% PBS (or less than 1% DMSO) for each experimental group. • 4. The original culture medium was gently removed from the 96-well plates using a pipette. 100 μL of the test article solutions prepared in Step 3 were added to rows 2-7 of each column to obtain six replicates for each concentration. Plates were then incubated for 24 hours. • 5. MTT solutions were prepared by dissolving commercial MTT powder in 1×PBS to a concentration of 5 mg/mL. After passing through a 0.22 μm PES filter, the MTT solution was divided into 1 mL portions in sterile centrifuge tubes and stored at −20° C. • 6. MTT stock solutions were removed from the freezer to thaw at room temperature. Before adding MTT solutions, cell cultures were visually inspected and imaged using a microscope (to use as a comparison with MTT results). 10 μL of the 5 mg/mL MTT solution was added to each well and the plate was incubated for 4 hours. • 7. After 4 h incubation, the culture medium/MT solution was removed gently using a pipette. 100 μL of DMSO was added to each well using a multichannel pipette. The 96-well plates were analyzed in a plate reader using the following method: shake for 5 minutes, wait for 30 seconds, and measure absorbance at 570 nm. • 8. Data processing: The average of background Abg was calculated from the blank column. All other data was first treated by subtracting Abg. The average A. and standard deviation Se of each experimental group and the average Ac and standard deviation Sc for control group (with pure culture medium incubation) were then calculated. The cell viability was determined as Ae/Ac×100% and corresponding error as Se/Ae×100%. Significant outliers in any experimental or control group were removed. […]
(Tetrazolium dyes change colour on reduction, which living cells bring about.)

Series [2] concerns E. coli K12 (ATCC 47076). The series can be described thus: MIC broth microdilution method, Table 3. Particulars: Escherichia coli, ATCC47076. In general terms: Broth dilution looks for growth in wells or tubes with falling amounts of substance.
Series [3] concerns NIH 3T3 (ATCC CRL-1658) cells. In words: Cytotoxicity, MTT assay. The following applies: Mus musculus. Type of series: cell-based. As for the experimental part: as §1, §2, §3
Series [4] in a line: Cytotoxicity, MTT assay. Type of series: cell-based. The following applies: human, Hep G2, at the concentration given as IC50 bound, read-out: cell viability at the highest or lowest test concentration. The method, then: as §1, §2, §3
The subject of series [5] is S. epidermidis (ATCC 14990). In words: MIC broth microdilution method, Table 3. The following applies: Staphylococcus epidermidis, ATCC14990.
Where [6] appears, read: NIH3T3, NIH 3T3, MTT, 24 hours incubation, read-out: IC50.
[7] abbreviates: Hep G2, MTT, 24 hours incubation, read-out: IC50.

For orientation: IC50 means the concentration that gives 50% inhibition. As to `C(=C\c1cc(OCCCCCC[n+]2ccccc2)cc(OCCCCCC[n+]2ccccc2)c1)/c1cc(OCCCCCC[n+]2ccccc2)cc(OCCCCCC[n+]2ccccc2)c1.[I-].[I-].[I-].[I-]` [Formula C], 29.7 µg/mL corresponded to half-maximal inhibition in series [1] (IC50).

For orientation: MIC means the lowest concentration that inhibits growth of the organism. High values mean a less susceptible organism, low ones a more susceptible organism. Take `CCCC[N+](C)(CCCCOc1cc(/C=C/c2ccc(/C=C/c3cc(OCCCC[N+](C)(CCCC)CCOCCOC)cc(OCCCC[N+](C)(CCCC)CCOCCOC)c3)cc2)cc(OCCCC[N+](C)(CCCC)CCOCCOC)c1)CCOCCOC` (centres unmarked) [Formula GG]: the MIC in series [2] turned out to be 32 µg/mL. In addition, in series [3] (setting [6]), the IC50 was determined as 77.8 µg/mL.

Regarding `C[C@@H](O)[C@H]1C(=O)N2C(C(=O)O)=C(S[C@@H]3CN[C@H](C(=O)N(C)C)C3)[C@H](C)[C@H]12` [Meropenem, reference compound], in series [1] (setting [7]), the IC50 is over 128 µg/mL. Moreover, the viability at 24 h in series [4] (Hep G2 (ATCC HB-8065) cells) worked out at 96%.

On to `C[N+](C)(C)CCCCCCN(CCCCCC[N+](C)(C)C)c1ccc(/C=C/c2ccc(/C=C/c3ccc(N(CCCCCC[N+](C)(C)C)CCCCCC[N+](C)(C)C)cc3)cc2)cc1` [Formula UU], for which, in series [1] (setting [7]), the IC50 turned out to be 43.7 µg/mL.

As to `CCCCCC[N+](C)(CCCCOc1cc(/C=C/c2ccc(/C=C/c3cc(OCCCC[N+](C)(CCCCCC)CCOCCOCCOC)cc(OCCCC[N+](C)(CCCCCC)CCOCCOCCOC)c3)cc2)cc(OCCCC[N+](C)(CCCCCC)CCOCCOCCOC)c1)CCOCCOCCOC` (centres unmarked) [Formula KK], 16 µg/mL was the least that counted as inhibitory in series [2] (MIC).

The molecule `CCCCCC[N+](C)(C)CCOc1cc(/C=C/c2ccc(/C=C/c3cc(OCC[N+](C)(C)CCCCCC)cc(OCC[N+](C)(C)CCCCCC)c3)cc2)cc(OCC[N+](C)(C)CCCCCC)c1.[I-].[I-].[I-].[I-]` [Formula H] came in with a minimal inhibitory concentration (MIC) in series [2] of 4 µg/mL. Moreover, the IC50 in series [1] (setting [7]) turned out to be 13 µg/mL.

As to `C[N+]12CC[N+](CCCOc3cc(/C=C/c4ccc(/C=C/c5cc(OCCC[N+]67CC[N+](C)(CC6)CC7)cc(OCCC[N+]67CC[N+](C)(CC6)CC7)c5)cc4)cc(OCCC[N+]45CC[N+](C)(CC4)CC5)c3)(CC1)CC2` [Formula DD], the MIC in series [2] was 64 µg/mL; in series [5], 16 µg/mL. Further, the IC50 in series [1] (setting [7]) is over 128 µg/mL. Moreover, in series [4] (Hep G2 (ATCC HB-8065) cells), the viability at 24 h was 85%.

In the case of `C[N+]1(CCCCCCOc2cc(/C=C/c3cc(OCCCCCC[N+]4(C)CCCCC4)cc(OCCCCCC[N+]4(C)CCCCC4)c3)cc(OCCCCCC[N+]3(C)CCCCC3)c2)CCCCC1.[I-].[I-].[I-].[I-]` [Formula N], the MIC came to 128 µg/mL in series [2] and 2 µg/mL in series [5]. In series [3] (NIH3T3, 24 h), this molecule yielded an IC50 of 124 µg/mL.

In the case of `C[N+](C)(C)CCCCCCOc1cc(/C=C/c2ccc(/C=C/c3ccccc3)cc2)cc(OCCCCCC[N+](C)(C)C)c1OCCCCCC[N+](C)(C)C` [Formula WW], the MIC in series [2] amounted to 16 µg/mL; in series [5], 2 µg/mL. In addition, the results for the IC50 in series [1] (setting [7]) and in series [3] (setting [6]) were 45.4 µg/mL and 30.9 µg/mL, respectively.

`C[N+](C)(C)CCCOc1cc(/C=C/c2ccc(/C=C/c3cc(OCCC[N+](C)(C)C)cc(OCCC[N+](C)(C)C)c3)cc2)cc(OCCC[N+](C)(C)C)c1` [Formula X] displayed an MIC in series [2] of 64 µg/mL. In series [1] (setting [7]), the IC50 was over 1020 µg/mL. Besides, the viability at 24 h in series [4] (Hep G2 (ATCC HB-8065) cells) is 73%.

`C[N+](C)(C)CCCCCCOc1cc(/C=C/c2cc(OCCCCCC[N+](C)(C)C)cc(OCCCCCC[N+](C)(C)C)c2)cc(OCCCCCC[N+](C)(C)C)c1` [Formula A]: the IC50 in series [1] is over 128 µg/mL. Moreover, in series [4], the viability at 24 h turned out to be 68%.

In series [1], `C[N+](C)(C)CCCCCCCCOc1cc(/C=C/c2cc(OCCCCCCCC[N+](C)(C)C)cc(OCCCCCCC[N+](C)(C)C)c2)cc(OCCCCCCC[N+](C)(C)C)c1.[I-].[I-].[I-].[I-]` [Formula B] came in with a half-maximal inhibitory concentration (IC50) of 9.9 µg/mL.

The molecule `CC(C)CCC[N+](C)(C)CCCCOc1cc(/C=C/c2ccc(/C=C/c3cc(OCCCC[N+](C)(C)CCCC(C)C)cc(OCCCC[N+](C)(C)CCCC(C)C)c3)cc2)cc(OCCCC[N+](C)(C)CCCC(C)C)c1.[I-].[I-].[I-].[I-]` [Formula V] displayed an MIC in series [2] of 4 µg/mL.

Molecule `CC[N+](C)(C)CCCOc1cc(/C=C/c2ccc(/C=C/c3cc(OCCC[N+](C)(C)CC)cc(OCCC[N+](C)(C)CC)c3)cc2)cc(OCCC[N+](C)(C)CC)c1` [Formula Y] gave an MIC in series [2] of 32 µg/mL. Besides, the IC50 in series [1] (setting [7]) was over 1020 µg/mL. The viability at 24 h in series [4] (Hep G2 (ATCC HB-8065) cells) was determined as 61%.

Take `C[N+](C)(CCCN)CCCOc1cc(/C=C/c2ccc(/C=C/c3cc(OCCC[N+](C)(C)CCCN)cc(OCCC[N+](C)(C)CCCN)c3)cc2)cc(OCCC[N+](C)(C)CCCN)c1` [Formula PP]: the MIC in series [2] came out at 32 µg/mL; in series [5], 16 µg/mL.

On to `C[N+](C)(C)CCCCCCN(CCCCCC[N+](C)(C)C)c1ccc(/C=C/c2ccc(/C=C/c3ccc(/C=C/c4ccc(N(CCCCCC[N+](C)(C)C)CCCCCC[N+](C)(C)C)cc4)cc3)cc2)cc1` [Formula VV], for which the IC50 in series [1] (setting [7]) is over 128 µg/mL. Also, the viability at 24 h in series [4] (Hep G2 (ATCC HB-8065) cells) came to 64%.

On to `C[N+](C)(CCCOc1cc(/C=C/c2ccc(/C=C/c3cc(OCCC[N+](C)(C)CC(O)CO)cc(OCCC[N+](C)(C)CC(O)CO)c3)cc2)cc(OCCC[N+](C)(C)CC(O)CO)c1)CC(O)CO` (centres unmarked) [Formula OO], for which the figures for the MIC in series [2] and in series [5] were over 128 µg/mL and over 64 µg/mL, respectively. Besides, in series [1] (setting [7]), the IC50 was over 1020 µg/mL. The viability at 24 h in series [4] (Hep G2 (ATCC HB-8065) cells) stood at 61%.
